Source: publication PMC6892925, “Development of Novel Silyl Cyanocinnamic Acid Derivatives as Metabolic Plasticity Inhibitors for Cancer Treatment” (Scientific Reports, 2019)

Columns and labels:
[1] = test system: MCF7, 4T1, WiDr, and MDA-MB-231 cell lines; experiment: MTT cell proliferation inhibition, all cell lines tested; type: cell-based; conditions: read-out: MTT IC50 values, span over all the cell lines tested
Procedure: (§4) Cell proliferation inhibition was evaluated using 3-(4,5-dimethylthiazol-2-yl)-2,5-diphenyl tetrazolium bromide (MTT) assay as reported previously[19].

[2] = test system: MCT1 expressing WiDr cell line; experiment: Seahorse XFe96 mitochondrial stress test (OCR); type: cell-based, human; conditions: 30 µM, vs DMSO control
Procedure: (§1) To assess mitochondrial stress, four parameters including maximal respiration, proton leak, ATP production, and spare respiratory capacity were measured. ATP production via OxPhos is dependent on mitochondrial integrity and can be measured directly via the oxygen consumption rate (OCR). Time-course OCR plots from WiDr and MDA-MB-231 cells were used to calculate 2a and 2b treatment-induced changes in specified parameters following the addition of various mitochondrial targeting agents (Fig. 5A,B). […] Spare respiratory capacity is a value that is not directly linked to mitochondrial damage but represents the cells ability to respond to rapid ATP demands.
(§2) 20,000 cells/well were plated in 96-well Seahorse plates (Agilent, part no. 101085-004) and incubated 16–24 hours at 37 °C at 5% CO2. Flux pack sensors (Agilent, part no. 102416-100) were hydrated with XF calibrant solution (Agilent, part no. 100840-000) overnight at 37 °C in a non-CO2 incubator. The serum free assay media was prepared from Seahorse base medium (Agilent, part no. 102353-100) enriched with glutamine (1 mM) and sodium pyruvate (1 mM). The pH of the media was adjusted to 7.4. For glycolysis stress test the serum free assay media was used. For the mitochondrial stress test glucose (10 mM) was added to make an enriched serum free assay media. For both stress tests an 8X stock concentration of test compounds in their respective media was prepared for microplate injections in port A. Stock solutions of glucose (90 mM), oligomycin (10 μM), and 2-deoxyglucose (Chem Impex, 550 mM) were prepared such that their final working concentrations are 10 mM, 1 μM and 50 mM, respectively, for glycolysis stress test. For mitochondrial stress test, stock solutions of oligomycin (9 µM), FCCP (2.5–10 µM, cell line dependent), rotenone + antimycin A (5.5 µM) were prepared such that their final concentrations were 1 µM, 0.25–1 µM, and 0.5 µM, respectively in the enriched test media. Under glycolytic stress test, the cells were treated with test compounds, followed by the addition of glucose, oligomycin and 2-deoxyglucose at 14.29, 33.8, 53.35, 72.87 minutes, respectively. Under mitochondrial stress test, cells were treated with test compounds, followed by the addition of oligomycin, FCCP, and rotenone + antimycin A, at 14.29, 33.8, 53.35, 72.87 minutes, respectively. Extracellular acidification rates (ECAR) and oxygen consumption rates (OCR) were recorded in real-time for glycolysis and mitochondrial stress tests, respectively, using a Seahorse XFe96® analyzer (Agilent). The parameters related to glycolytic and mitochondrial functions were calculated utilizing the Wave 2.4.0 software (Agilent). ATP rate assay experiment was performed using manufactures (Agilent) protocol, and respective mitochondrial and glycolytic ATP rates were normalized to protein (BCA assay) and calculated using Wave 2.4.0 software.

[3] = test system: MCT4 expressing MDA-MB-231 cell line; experiment: Seahorse XFe96 mitochondrial stress test (OCR); type: cell-based, human; conditions: 30 µM, MDA-MB-231, vs DMSO control
Procedure: as §1, §2

healthy CD-1 mice = experiment: In vivo systemic toxicity study; design: species or system mouse; conditions: once daily 25 mg/kg, 16-day treatment period
Procedure: (§3) Based on in vitro cell proliferation inhibition, MCT1 inhibition, and effects on glycolysis/mitochondrial function, we advanced candidate compounds 2a and 2b for translational in vivo safety and efficacy studies. […] Next, an MCT1 expressing WiDr tumor xenograft model was chosen to evaluate the efficacy of 2a and 2b. After tumors were inoculated, they were allowed to reach ~150 mm^3 volume, and mice were randomly divided into three groups. Group-1 was administered 25 mg/kg (i.p.) of compound 2a, group-2 was administered with 25 mg/kg (i.p.) of 2b, and group-3 was designated as control group and given an injection of vehicle. Treatment was continued for 16 days, and tumor volumes were recorded. […] During the two-week treatment period, there was no significant loss of body weights in mice between treated and control groups. […] At the end of the study, all the tumors were resected, and the tumor mass was weighed (Fig. 6D).
Five-week-old healthy CD-1 mice (Charles River) were obtained and acclimatized for one week prior to treatment. Mice (n = 6) were grouped randomly based on average body weight. […] Mice body weights were recorded daily as a proxy for animal health and were also examined for proper activity and grooming patterns. […]

[4] = test system: MCT1 expressing WiDr tumor xenograft; experiment: In vivo tumor growth inhibition study, WiDr tumor xenograft; design: species or system mouse; conditions: 25 mg/kg i.p., 16 days; for tumor growth suppression: vs control group
Procedure: as §3
WiDr cells (5 × 10^6 cells) were suspended in 1:1 mixture of matrigel (Corning, cat. no. 356237) and PBS and injected subcutaneously into the right flank of female athymic nude mice (Charles River). The mice were randomly assigned into 3 groups (n = 6 mice per group). Vertical and horizontal diameters of tumors were measured every two- or three-days using calipers. The tumor volumes were calculated assuming a perfect sphere using the formula V = ab^2/2 where ‘a’ is the longer diameter of the tumor and ‘b’ is the shorter diameter of the tumor. Treatment was initiated when the tumor volume reached 100 mm^3. The study was terminated after sixteen days and tumors were then resected and weighed. All procedures performed using this method were approved by the University of Minnesota Institutional Animal Care and Use Committee (IACUC, protocol no. 1612-34444A) and are in accordance with all guidelines and regulations.

MDA-MB-231 cell line = experiment: MTT cell proliferation inhibition assay; conditions: Homo sapiens, MDA-MB-231, read-out: MTT IC50
Procedure: (§5) Human triple-negative breast cancer MDA-MB-231 cells (ATCC) were grown in DMEM supplemented with 10% FBS (Atlanta Biologicals) and penicillin-streptomycin (50U/ml, 50 µg/ml, Invitrogen). Human colorectal adenocarcinoma WiDr cells (ATCC) were cultured in MEM medium supplemented with 10% FBS and penicillin-streptomycin. […] Murine metastatic breast cancer 4T1 cells were grown in RPMI-1640 supplemented with 10% FBS and penicillin-streptomycin. Human estrogen receptor positive breast cancer MCF7 cells (Masonic Cancer Center, University of Minnesota) were grown in MEM supplemented with 6% FBS, EGF (0.01 µg/ml), NEAA, HDC (1 µg/ml), insulin (10 µg/ml), HEPES (12 mM) and sodium pyruvate (1 mM).
as §4

4T1 cell line = experiment: MTT cell proliferation inhibition assay; conditions: Mus musculus, 4T1, read-out: MTT IC50
Procedure: as §5, §4

WiDr cell line = experiment: MTT cell proliferation inhibition assay; conditions: Homo sapiens, read-out: MTT IC50
Procedure: as §5, §4

| Compound | IC50 [1] [µM] | FCCP induced maximal respiration (OCR) [2] | oxygen consumption for mitochondrial ATP production (OCR) [2] | proton leak (OCR) [2] | spare respiratory capacity (OCR) [2] | FCCP induced maximal respiration (OCR) [3] | oxygen consumption for mitochondrial ATP production (OCR) [3] | proton leak (OCR) [3] | spare respiratory capacity (OCR) [3] | systemic toxicity / tolerability (body weight gains, behavior, grooming) (healthy CD-1 mice) | tumor volume vs control group [4] | tumor growth suppression [4] [%] | IC50 (MDA-MB-231 cell line) [µM] | IC50 (4T1 cell line) [µM] | IC50 (WiDr cell line) [µM] |
| --- | --- | --- | --- | --- | --- | --- | --- | --- | --- | --- | --- | --- | --- | --- | --- |
| CC(C)(C)[Si](Oc1ccc(/C=C(\C#N)C(=O)O)cc1)(c1ccccc1)c1ccccc1 [2a] | 6 to 93 | significantly decreased | significantly decreased | significant increase | significant decrease | significantly decreased | significantly decreased | significant increase | significant decrease | well tolerated | significant suppression in tumor volume | 36 | 93 | 56 ± 1 | 41 ± 2 |
| CC(C)(C)[Si](OCCOc1ccc(/C=C(\C#N)C(=O)O)cc1)(c1ccccc1)c1ccccc1 [2b] | 6 to 93 | significantly decreased | significantly decreased | significant increase | significant decrease | significantly decreased | significantly decreased | significant increase | significant decrease | well tolerated |  | 28 | 71 ± 1 | 22 ± 1 | 6 ± 1 |
